Measured values from US20090047310A1, “Use of a griffonia extract, in particular griffonia simplicifolia, in a cosmetic or dermatological composition for mitigating pigmentation of skin and skin appendages” (priority 2005, published 2009).

Tested on: Normal human melanocytes
Assay: Melanogenesis: quantity of melaninic pigments in cultured normal human melanocytes
Format: cell-based
Conditions: ten days culture
Procedure: Normal human melanocytes are cultured for ten days in the absence and in the presence of non-cytotoxic quantities of the dry extract. The quantity of melaninic pigments is evaluated by extraction using 0.5 N soda and optical density measurement.
The procedure is as before for the dry extract.
The procedure is as before for the dry extract using 5-HTP extracted from the seeds of Griffonia simplicifolia.

N[C@@H](Cc1c[nH]c2ccc(O)cc12)C(=O)O [5-HTP, 5-hydroxytryptophan]
quantity of melanin produced by the melanocytes, % of the control (0.0016 mg/ml, p less than 0.05): 93% | quantity of melanin produced by the melanocytes, % of the control (0.008 mg/ml, p less than 0.01): 89% | quantity of melanin produced by the melanocytes, % of the control (0.04 mg/ml, p less than 0.01): 80%
